Numbered stars: 1 amine (or outer) side, 2 acyl side, 3 side chain; on linkers, the order of the positions; unused ones are H or OH. Bridge positions count the residues as written; N and C are the ends. Square brackets hold non-standard residues; d marks the D form. Peptide text beside a SMILES is read from it. * marks the point of attachment. X1 = C[C@@]1(C(=O)C[C@@H](Cc2ccccc2)C(=O)[*:2])CCCN1[*:1]; DOTA = O=C(O)CN1CCN(CC(=O)O)CCN(CC(=O)*)CCN(CC(=O)O)CC1; 1Nal = N[C@@H](Cc1cccc2ccccc12)C(=O)O; 2Nal = N[C@@H](Cc1ccc2ccccc2c1)C(=O)O; Ala(4-THP) = N[C@@H](CC1CCOCC1)C(=O)O; Gly(4-THP) = N[C@H](C(=O)O)C1CCOCC1; 3Pal = N[C@@H](Cc1cccnc1)C(=O)O; Chg = N[C@H](C(=O)O)C1CCCCC1; Tle = CC(C)(C)[C@H](N)C(=O)O; αMeP = C[C@@]1(C(=O)O)CCCN1; Pip = O=C(O)[C@@H]1CCCCN1
Biological target: T1, human DLL3 (Homo sapiens, UniProt Q9NYJ7)
T1 construct: biotin (biotinylated)
T1 sequence (Q9NYJ7 27-618): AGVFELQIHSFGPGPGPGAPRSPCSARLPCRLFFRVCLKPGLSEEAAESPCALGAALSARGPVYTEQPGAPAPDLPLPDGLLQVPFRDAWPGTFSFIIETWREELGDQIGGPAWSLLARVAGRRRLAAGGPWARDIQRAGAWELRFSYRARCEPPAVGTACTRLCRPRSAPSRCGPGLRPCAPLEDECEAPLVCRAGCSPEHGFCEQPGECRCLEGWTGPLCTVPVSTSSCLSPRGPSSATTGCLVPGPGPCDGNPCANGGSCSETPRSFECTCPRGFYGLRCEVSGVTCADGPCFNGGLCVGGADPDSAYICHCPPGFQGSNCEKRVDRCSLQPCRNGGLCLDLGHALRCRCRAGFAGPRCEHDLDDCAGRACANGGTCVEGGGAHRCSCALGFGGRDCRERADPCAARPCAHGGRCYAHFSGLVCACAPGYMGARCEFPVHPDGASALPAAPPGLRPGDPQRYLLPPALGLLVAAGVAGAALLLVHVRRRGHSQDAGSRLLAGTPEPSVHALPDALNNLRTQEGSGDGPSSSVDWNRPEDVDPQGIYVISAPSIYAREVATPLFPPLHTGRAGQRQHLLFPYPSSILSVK
Assay: Affinity determination by Surface Plasmon Resonance (SPR), Biacore, 1:1 binding model
Details: biotinylated human DLL3 on streptavidin chip, 25° C.; NB = nonbinding
Method in brief: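 SPR with biotinylated human DLL3 captured on a streptavidin chip, with a reference surface subtracted. Samples were injected at several concentrations at 100 μL/min in phosphate buffer with 137 mM NaCl, 2.7 mM KCl, 0.05% P20 and 2% DMSO. Kinetic and affinity constants came from a 1:1 binding fit.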

Compound	Kd	SPR KD (nM)
CC(=O)N[C@H](C(=O)N[C@@H](CO)C(=O)N[C@@H](CC(=O)O)C(=O)N[C@H]1CSSC[C@@H](C(=O)N2CCC[C@@]2(C)C(=O)N[C@@H](Cc2ccccc2)C(=O)N[C@@H](CC(=O)O)C(=O)N[C@H](CCCCNC(=O)CN2CCN(CC(=O)O)CCN(CC(=O)O)CCN(CC(=O)O)CC2)C(N)=O)NC(=O)[C@H](CC(N)=O)NC(=O)[C@H](Cc2c[nH]c3ccccc23)NC(=O)[C@H](CCC(N)=O)NC(=O)[C@H](C2CCCCC2)NC(=O)[C@H](Cc2cccc3ccccc23)NC1=O)C1CCCCC1 [compound 123, Ac-(Chg)-S-D-C(3)-(1Nal)-Chg-Q-W-N-C(3)-(aMe-P)-F-D-D-Lys(DOTA)-CONH2] (Ac-[Chg]SDC[1Nal][Chg]QWNC[αMeP]FD[dK](DOTA)-NH2; disulfide 4-10)	0.34 nM	–
CC(=O)N[C@H](C(=O)N[C@@H](CO)C(=O)N[C@@H](CC(=O)O)C(=O)N[C@H]1CSSC[C@@H](C(=O)N2CCC[C@@]2(C)C(=O)N[C@@H](Cc2ccccc2)C(=O)N[C@@H](CC(=O)O)C(=O)N[C@H](CCCCNC(=O)CN2CCN(CC(=O)O)CCN(CC(=O)O)CCN(CC(=O)O)CC2)C(N)=O)NC(=O)[C@H](CC(N)=O)NC(=O)[C@H](Cc2ccc3ccccc3c2)NC(=O)[C@H](CCC(N)=O)NC(=O)[C@H](CC(C)C)NC(=O)[C@H](Cc2cccc3ccccc23)NC1=O)C1CCCCC1 [compound 124, Ac-(Chg)-S-D-C(3)-(1Nal)-L-Q-(2Nal)-N-C(3)-(aMe-P)-F-D-D-Lys(DOTA)-CONH2] (Ac-[Chg]SDC[1Nal]LQ[2Nal]NC[αMeP]FD[dK](DOTA)-NH2; disulfide 4-10)	0.15 nM	–
CC(=O)N[C@H](C)C(=O)N[C@H](CO)C(=O)N[C@@H](CC(=O)O)C(=O)N[C@H]1CSSC[C@@H](C(=O)N2CCC[C@@]2(C)C(=O)C[C@@H](Cc2ccccc2)C(=O)N[C@@H](CC(=O)O)C(=O)N[C@H](CCCCNC(=O)CN2CCN(CC(=O)O)CCN(CC(=O)O)CCN(CC(=O)O)CC2)C(N)=O)NC(=O)[C@H](CC(N)=O)NC(=O)[C@H](Cc2ccc3ccccc3c2)NC(=O)[C@H](CCC(N)=O)NC(=O)[C@H](C2CCCCC2)NC(=O)[C@H](Cc2cccc3ccccc23)NC1=O [compound 126, Ac-(D-Ala)-(D-Ser)-D-C(3)-(1Nal)-(Chg)-Q-(2Nal)-N-C(3)-(aMe-P)-F-D-D-Lys(DOTA)-CONH2] (Ac-[dA][dS]DC[1Nal][Chg]Q[2Nal]NC[X1]D[dK](DOTA)-NH2; disulfide 4-10)	0.26 nM	–
CC(=O)N[C@H](C)C(=O)N[C@H](CO)C(=O)N[C@@H](CC(=O)O)C(=O)N[C@H]1CSSC[C@@H](C(=O)N2CCC[C@@]2(C)C(=O)N[C@@H](Cc2ccccc2)C(=O)N[C@@H](CC(=O)O)C(=O)N[C@H](CCCCNC(=O)CN2CCN(CC(=O)O)CCN(CC(=O)O)CCN(CC(=O)O)CC2)C(N)=O)NC(=O)[C@H](CC(N)=O)NC(=O)[C@H](Cc2ccc3ccccc3c2)NC(=O)[C@H](Cc2cccnc2)NC(=O)[C@H](C2CCCCC2)NC(=O)[C@H](Cc2cccc3ccccc23)NC1=O [compound 127, Ac-(D-Ala)-(D-Ser)-D-C(3)-(1Nal)-(Chg)-(3Pya)-(2Nal)-N-C(3)-(aMe-P)-F-D-D-Lys(DOTA)-CONH2] (Ac-[dA][dS]DC[1Nal][Chg][3Pal][2Nal]NC[αMeP]FD[dK](DOTA)-NH2; disulfide 4-10)	0.5 nM	–
CC(=O)N[C@H](C(=O)N[C@@H](CO)C(=O)N[C@@H](CC(=O)O)C(=O)N[C@H]1CSSC[C@@H](C(=O)N2CCC[C@@]2(C)C(=O)N[C@@H](Cc2ccccc2)C(=O)N[C@@H](CC(=O)O)C(=O)N[C@H](CCCCNC(=O)CN2CCN(CC(=O)O)CCN(CC(=O)O)CCN(CC(=O)O)CC2)C(N)=O)NC(=O)[C@H](CC(N)=O)NC(=O)[C@H](Cc2ccc3ccccc3c2)NC(=O)[C@H](CCC(N)=O)NC(=O)[C@H](C(C)(C)C)NC(=O)[C@H](Cc2cccc3ccccc23)NC1=O)C1CCCCC1 [compound 129, Ac-(Chg)-S-D-C(3)-(1Nal)-(TBG)-Q-(2Nal)-N-C(3)-(aMe-P)-F-D-D-Lys(DOTA)-CONH2] (Ac-[Chg]SDC[1Nal][Tle]Q[2Nal]NC[αMeP]FD[dK](DOTA)-NH2; disulfide 4-10)	–	slow kon
CC(=O)N[C@H](C(=O)N[C@@H](CO)C(=O)N[C@@H](CC(=O)O)C(=O)N[C@H]1CSSC[C@@H](C(=O)N2CCC[C@@]2(C)C(=O)N[C@@H](Cc2ccccc2)C(=O)N[C@@H](CC(=O)O)C(=O)N[C@H](CCCCNC(=O)CN2CCN(CC(=O)O)CCN(CC(=O)O)CCN(CC(=O)O)CC2)C(N)=O)NC(=O)[C@H](CC(N)=O)NC(=O)[C@H](Cc2ccc3ccccc3c2)NC(=O)[C@H](CCC(N)=O)NC(=O)[C@@H]2CCCCN2C(=O)[C@H](Cc2cccc3ccccc23)NC1=O)C1CCCCC1 [compound 130, Ac-(Chg)-S-D-C(3)-(1Nal)-(PIP)-Q-(2Nal)-N-C(3)-(aMe-P)-F-D-D-Lys(DOTA)-CONH2] (Ac-[Chg]SDC[1Nal][Pip]Q[2Nal]NC[αMeP]FD[dK](DOTA)-NH2; disulfide 4-10)	–	slow kon
CC(=O)N[C@H](C(=O)N[C@@H](CO)C(=O)N[C@@H](CC(=O)O)C(=O)N[C@H]1CSSC[C@@H](C(=O)N2CCC[C@@]2(C)C(=O)N[C@@H](Cc2ccccc2)C(=O)N[C@@H](CC(=O)O)C(=O)N[C@H](CCCCNC(=O)CN2CCN(CC(=O)O)CCN(CC(=O)O)CCN(CC(=O)O)CC2)C(N)=O)NC(=O)[C@H](CC(N)=O)NC(=O)[C@H](Cc2ccc3ccccc3c2)NC(=O)[C@H](CCC(N)=O)NC(=O)[C@H](C(C)(C)C)NC(=O)[C@H](Cc2cccc3ccccc23)NC1=O)C1CCCCC1 [compound 131, Ac-(Chg)-S-D-C(3)-(1Nal)-(D-Leu)-Q-(2Nal)-N-C(3)-(aMe-P)-F-D-D-Lys(DOTA)-CONH2] (Ac-[Chg]SDC[1Nal][Tle]Q[2Nal]NC[αMeP]FD[dK](DOTA)-NH2; disulfide 4-10)	0.95 nM	–
CC(=O)N[C@H](C(=O)N[C@@H](CO)C(=O)N[C@@H](CC(=O)O)C(=O)N[C@H]1CSSC[C@@H](C(=O)N2CCC[C@@]2(C)C(=O)N[C@@H](Cc2ccccc2)C(=O)N[C@@H](CC(=O)O)C(=O)N[C@H](CCCCNC(=O)CN2CCN(CC(=O)O)CCN(CC(=O)O)CCN(CC(=O)O)CC2)C(N)=O)NC(=O)[C@H](CC(N)=O)NC(=O)[C@H](Cc2c[nH]c3ccccc23)NC(=O)[C@H](CC2CCOCC2)NC(=O)[C@H](CC(C)C)NC(=O)[C@H](Cc2cccc3ccccc23)NC1=O)C1CCCCC1 [compound 132, Ac-(Chg)-S-D-C(3)-(1Nal)-L-(THPA)-W-N-C(3)-(aMe-P)-F-D-[D-Lys(DOTA)]-NH2] (Ac-[Chg]SDC[1Nal]L[Ala(4-THP)]WNC[αMeP]FD[dK](DOTA)-NH2; disulfide 4-10)	0.21 nM	–
CC(=O)N[C@H](C(=O)N[C@@H](CO)C(=O)N[C@@H](CC(=O)O)C(=O)N[C@H]1CSSC[C@@H](C(=O)N2CCC[C@@]2(C)C(=O)N[C@@H](Cc2ccccc2)C(=O)N[C@@H](CC(=O)O)C(=O)N[C@H](CCCCNC(=O)CN2CCN(CC(=O)O)CCN(CC(=O)O)CCN(CC(=O)O)CC2)C(N)=O)NC(=O)[C@H](CC(N)=O)NC(=O)[C@H](Cc2c[nH]c3ccccc23)NC(=O)[C@H](C2CCOCC2)NC(=O)[C@H](CC(C)C)NC(=O)[C@H](Cc2cccc3ccccc23)NC1=O)C1CCCCC1 [compound 133, Ac-(Chg)-S-D-C(3)-(1Nal)-L-(THPG)-W-N-C(3)-(aMe-P)-F-D-[D-Lys(DOTA)]-NH2] (Ac-[Chg]SDC[1Nal]L[Gly(4-THP)]WNC[αMeP]FD[dK](DOTA)-NH2; disulfide 4-10)	> 30 nM	–
CC(=O)N[C@H](C(=O)N[C@@H](CO)C(=O)N[C@@H](CC(=O)O)C(=O)N[C@H]1CSSC[C@@H](C(=O)N2CCC[C@@]2(C)C(=O)N[C@@H](Cc2ccccc2)C(=O)N[C@@H](CC(=O)O)C(=O)N[C@H](CCCCNC(=O)CN2CCN(CC(=O)O)CCN(CC(=O)O)CCN(CC(=O)O)CC2)C(N)=O)NC(=O)[C@H](CC2CCOCC2)NC(=O)[C@H](Cc2c[nH]c3ccccc23)NC(=O)[C@H](CCC(N)=O)NC(=O)[C@H](CC(C)C)NC(=O)[C@H](Cc2cccc3ccccc23)NC1=O)C1CCCCC1 [compound 134, Ac-(Chg)-S-D-C(3)-(1Nal)-L-Q-W-(THPA)-C(3)-(aMe-P)-F-D-[D-Lys(DOTA)]-NH2] (Ac-[Chg]SDC[1Nal]LQW[Ala(4-THP)]C[αMeP]FD[dK](DOTA)-NH2; disulfide 4-10)	3.52 nM	–
CC(=O)N[C@H](C(=O)N[C@@H](CO)C(=O)N[C@@H](CC(=O)O)C(=O)N[C@H]1CSSC[C@@H](C(=O)N2CCC[C@@]2(C)C(=O)N[C@@H](Cc2ccccc2)C(=O)N[C@@H](CC(=O)O)C(=O)N[C@H](CCCCNC(=O)CN2CCN(CC(=O)O)CCN(CC(=O)O)CCN(CC(=O)O)CC2)C(N)=O)NC(=O)[C@H](C2CCOCC2)NC(=O)[C@H](Cc2c[nH]c3ccccc23)NC(=O)[C@H](CCC(N)=O)NC(=O)[C@H](CC(C)C)NC(=O)[C@H](Cc2cccc3ccccc23)NC1=O)C1CCCCC1 [compound 135, Ac-(Chg)-S-D-C(3)-(1Nal)-L-Q-W-(THPG)-C(3)-(aMe-P)-F-D-[D-Lys(DOTA)]-NH2] (Ac-[Chg]SDC[1Nal]LQW[Gly(4-THP)]C[αMeP]FD[dK](DOTA)-NH2; disulfide 4-10)	> 30 nM	–

— patent publication US20250186541A1, “DLL3 TARGETING PEPTIDES AND CONSTRUCTS THEREOF” (MARIANA ONCOLOGY INC., priority 2023, published 2025)
